# Experimental data: patent US12496309B2, “Method for treatment of pancreatitis” (NovMetaPharma Co., Ltd., priority 2020, dated 2025)
# pIC50: −log10 of the molar value.
# How the values were obtained:
# [1] = MS (microsomal stability) d; assay type: in vitro ADME, dog
# Permeability (PAMPA) = assay type: in vitro ADME; details: for Papp: PAMPA
# PK = assay type: in vivo; details: for Cmax / PK BA % / clearance / half-life / Vd: in vivo; for clearance: read-out: PK CL; for half-life: read-out: PK T½ (converted); for Vd: read-out: PK Vss
# [2] = MS (microsomal stability) r; assay type: in vitro ADME, rat
# Water solubility = assay type: physicochemical
# [3] = MS (microsomal stability) m; assay type: in vitro ADME, mouse
# ERα = ERα (Homo sapiens, UniProt P03372); experiment: ERα binding selectivity
# Sequence of ERα (P03372 whole entry): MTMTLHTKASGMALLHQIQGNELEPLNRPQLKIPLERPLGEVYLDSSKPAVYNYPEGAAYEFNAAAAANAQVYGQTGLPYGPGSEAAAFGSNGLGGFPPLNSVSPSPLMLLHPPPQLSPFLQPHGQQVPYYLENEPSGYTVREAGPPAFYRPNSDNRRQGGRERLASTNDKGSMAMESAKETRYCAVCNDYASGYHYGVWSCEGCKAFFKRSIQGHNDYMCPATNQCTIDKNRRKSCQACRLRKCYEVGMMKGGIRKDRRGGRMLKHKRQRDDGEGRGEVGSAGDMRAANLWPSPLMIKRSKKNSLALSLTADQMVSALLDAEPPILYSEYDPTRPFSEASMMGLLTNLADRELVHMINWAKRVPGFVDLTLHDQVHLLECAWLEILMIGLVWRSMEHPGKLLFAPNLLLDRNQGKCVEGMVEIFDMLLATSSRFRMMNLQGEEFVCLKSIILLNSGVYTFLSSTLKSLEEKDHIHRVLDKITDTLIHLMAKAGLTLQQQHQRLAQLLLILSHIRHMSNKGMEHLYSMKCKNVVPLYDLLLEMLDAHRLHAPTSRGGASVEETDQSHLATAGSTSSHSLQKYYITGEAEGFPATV
# [4] = MS (microsomal stability) h; assay type: in vitro ADME, human
# hERG [5] = target: T1, hERG (Homo sapiens, UniProt Q12809); experiment: hERG current; assay type: cell-based
# T1 sequence (Q12809 whole entry, canonical isoform): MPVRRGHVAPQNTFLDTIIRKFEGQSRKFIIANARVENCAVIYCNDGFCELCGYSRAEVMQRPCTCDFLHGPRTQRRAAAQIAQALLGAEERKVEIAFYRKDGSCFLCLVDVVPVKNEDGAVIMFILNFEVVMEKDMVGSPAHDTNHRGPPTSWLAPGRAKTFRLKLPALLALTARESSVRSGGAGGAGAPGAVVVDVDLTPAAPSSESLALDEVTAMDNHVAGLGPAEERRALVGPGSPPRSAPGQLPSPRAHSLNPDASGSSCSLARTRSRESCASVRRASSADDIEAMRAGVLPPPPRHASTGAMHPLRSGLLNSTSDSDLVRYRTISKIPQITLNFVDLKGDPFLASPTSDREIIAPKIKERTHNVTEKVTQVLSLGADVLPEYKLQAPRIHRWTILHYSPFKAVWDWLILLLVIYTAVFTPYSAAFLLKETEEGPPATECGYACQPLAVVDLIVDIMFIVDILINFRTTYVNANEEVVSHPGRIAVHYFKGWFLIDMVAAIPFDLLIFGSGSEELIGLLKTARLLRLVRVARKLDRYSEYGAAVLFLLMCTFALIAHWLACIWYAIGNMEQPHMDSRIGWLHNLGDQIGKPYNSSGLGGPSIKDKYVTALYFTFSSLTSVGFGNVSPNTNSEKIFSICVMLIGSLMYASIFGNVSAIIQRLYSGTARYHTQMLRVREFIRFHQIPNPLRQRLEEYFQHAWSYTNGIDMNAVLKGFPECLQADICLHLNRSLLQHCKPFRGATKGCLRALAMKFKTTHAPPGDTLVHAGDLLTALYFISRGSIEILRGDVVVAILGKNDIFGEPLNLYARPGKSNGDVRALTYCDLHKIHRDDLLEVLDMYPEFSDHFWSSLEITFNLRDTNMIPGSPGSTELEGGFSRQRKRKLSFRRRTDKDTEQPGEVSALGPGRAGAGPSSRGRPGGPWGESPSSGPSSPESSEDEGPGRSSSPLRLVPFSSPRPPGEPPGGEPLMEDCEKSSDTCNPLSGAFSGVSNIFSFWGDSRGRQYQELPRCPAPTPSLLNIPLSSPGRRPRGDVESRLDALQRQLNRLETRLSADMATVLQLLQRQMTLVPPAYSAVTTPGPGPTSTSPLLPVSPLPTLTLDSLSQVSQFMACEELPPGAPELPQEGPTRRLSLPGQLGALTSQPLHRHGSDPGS
# CYP = CYP inhibition, all isoforms; assay type: in vitro ADME
# ERRα = ERRα (Homo sapiens, UniProt P11474); experiment: ERRα binding selectivity
# Sequence of ERRα (P11474 whole entry): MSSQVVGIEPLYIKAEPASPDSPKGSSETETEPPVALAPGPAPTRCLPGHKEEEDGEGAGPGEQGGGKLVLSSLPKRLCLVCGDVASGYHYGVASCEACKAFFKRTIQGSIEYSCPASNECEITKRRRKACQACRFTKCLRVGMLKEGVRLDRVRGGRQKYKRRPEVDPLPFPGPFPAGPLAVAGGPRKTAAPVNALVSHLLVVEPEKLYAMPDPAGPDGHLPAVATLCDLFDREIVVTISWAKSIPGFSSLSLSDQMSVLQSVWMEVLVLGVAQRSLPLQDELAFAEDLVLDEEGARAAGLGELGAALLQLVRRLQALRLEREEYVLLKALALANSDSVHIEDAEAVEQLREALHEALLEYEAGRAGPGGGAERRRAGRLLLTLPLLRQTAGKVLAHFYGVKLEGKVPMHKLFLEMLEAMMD
# hERG [6] = target: T1, hERG; experiment: hERG binding
# CYP 2C9 = CYP 2C9 (Homo sapiens, UniProt P11712); experiment: CYP inhibition 2C9; assay type: in vitro ADME
# Sequence of CYP 2C9 (P11712 whole entry): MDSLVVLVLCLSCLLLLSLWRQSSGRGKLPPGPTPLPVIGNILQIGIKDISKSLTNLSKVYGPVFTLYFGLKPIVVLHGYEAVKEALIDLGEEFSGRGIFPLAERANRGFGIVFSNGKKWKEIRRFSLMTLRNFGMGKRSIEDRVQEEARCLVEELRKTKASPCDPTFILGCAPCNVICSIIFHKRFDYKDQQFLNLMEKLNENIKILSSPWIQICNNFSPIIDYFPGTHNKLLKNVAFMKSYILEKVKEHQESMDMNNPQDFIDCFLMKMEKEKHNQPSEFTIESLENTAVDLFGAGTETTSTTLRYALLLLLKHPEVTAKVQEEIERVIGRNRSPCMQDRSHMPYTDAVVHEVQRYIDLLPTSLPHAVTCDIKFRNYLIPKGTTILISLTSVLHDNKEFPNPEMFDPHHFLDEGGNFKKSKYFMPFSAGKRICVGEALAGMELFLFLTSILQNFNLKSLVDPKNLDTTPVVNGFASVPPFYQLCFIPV
# CYP 2D6 = CYP 2D6 (Homo sapiens, UniProt P10635); experiment: CYP inhibition 2D6; assay type: in vitro ADME
# Sequence of CYP 2D6 (P10635 whole entry): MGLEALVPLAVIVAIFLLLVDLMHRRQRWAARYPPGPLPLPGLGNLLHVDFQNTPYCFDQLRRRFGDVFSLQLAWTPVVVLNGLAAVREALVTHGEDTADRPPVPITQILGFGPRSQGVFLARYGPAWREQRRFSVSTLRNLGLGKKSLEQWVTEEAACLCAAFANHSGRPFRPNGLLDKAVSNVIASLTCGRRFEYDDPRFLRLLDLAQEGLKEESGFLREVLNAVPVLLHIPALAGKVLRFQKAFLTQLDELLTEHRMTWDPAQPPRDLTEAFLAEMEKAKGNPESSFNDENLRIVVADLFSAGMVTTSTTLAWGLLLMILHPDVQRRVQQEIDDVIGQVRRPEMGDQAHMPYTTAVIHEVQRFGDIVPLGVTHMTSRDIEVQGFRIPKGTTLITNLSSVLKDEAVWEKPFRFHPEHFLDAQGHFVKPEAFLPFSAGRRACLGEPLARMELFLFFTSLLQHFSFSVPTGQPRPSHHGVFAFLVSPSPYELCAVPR
# CYP 3A4 = CYP 3A4 (Homo sapiens, UniProt P08684); experiment: CYP inhibition 3A4; assay type: in vitro ADME
# Sequence of CYP 3A4 (P08684 whole entry): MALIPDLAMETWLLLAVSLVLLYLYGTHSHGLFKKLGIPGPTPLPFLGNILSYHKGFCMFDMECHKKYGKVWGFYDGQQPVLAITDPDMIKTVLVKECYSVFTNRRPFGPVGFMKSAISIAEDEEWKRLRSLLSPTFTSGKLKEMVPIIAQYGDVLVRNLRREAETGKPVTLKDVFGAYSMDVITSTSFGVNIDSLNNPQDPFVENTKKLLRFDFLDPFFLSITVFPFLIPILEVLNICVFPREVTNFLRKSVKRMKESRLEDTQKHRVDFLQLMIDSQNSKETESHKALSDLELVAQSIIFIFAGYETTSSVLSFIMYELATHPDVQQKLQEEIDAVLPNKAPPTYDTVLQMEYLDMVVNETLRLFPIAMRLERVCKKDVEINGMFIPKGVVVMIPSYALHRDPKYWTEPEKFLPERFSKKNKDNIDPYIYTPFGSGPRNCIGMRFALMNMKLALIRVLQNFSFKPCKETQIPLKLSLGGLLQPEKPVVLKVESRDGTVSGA
# Single dose toxicity = details: in vivo, read-out: Single dose Tax, LD50
# Description: Next, the inventors analyzed the toxicity of these compounds in vivo (Table 3). […]
# CYP 2C19 = CYP 2C19 (Homo sapiens, UniProt P33261); experiment: CYP inhibition 2C19; assay type: in vitro ADME
# Sequence of CYP 2C19 (P33261 whole entry): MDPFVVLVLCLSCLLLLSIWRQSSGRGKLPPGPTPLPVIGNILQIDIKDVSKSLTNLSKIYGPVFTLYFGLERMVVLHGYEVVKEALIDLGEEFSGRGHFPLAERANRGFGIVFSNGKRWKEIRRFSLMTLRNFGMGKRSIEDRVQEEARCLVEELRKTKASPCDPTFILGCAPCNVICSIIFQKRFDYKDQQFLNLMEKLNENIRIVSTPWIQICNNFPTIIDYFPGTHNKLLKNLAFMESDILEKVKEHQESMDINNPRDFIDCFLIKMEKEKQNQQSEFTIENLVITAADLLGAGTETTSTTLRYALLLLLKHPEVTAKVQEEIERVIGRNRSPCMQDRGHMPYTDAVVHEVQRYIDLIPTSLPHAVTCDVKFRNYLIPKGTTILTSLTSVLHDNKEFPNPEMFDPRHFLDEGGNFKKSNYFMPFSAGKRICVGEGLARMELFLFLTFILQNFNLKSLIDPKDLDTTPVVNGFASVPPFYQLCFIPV
# CYP 1A2 = CYP 1A2 (Homo sapiens, UniProt P05177); experiment: CYP inhibition 1A2; assay type: in vitro ADME
# Sequence of CYP 1A2 (P05177 whole entry): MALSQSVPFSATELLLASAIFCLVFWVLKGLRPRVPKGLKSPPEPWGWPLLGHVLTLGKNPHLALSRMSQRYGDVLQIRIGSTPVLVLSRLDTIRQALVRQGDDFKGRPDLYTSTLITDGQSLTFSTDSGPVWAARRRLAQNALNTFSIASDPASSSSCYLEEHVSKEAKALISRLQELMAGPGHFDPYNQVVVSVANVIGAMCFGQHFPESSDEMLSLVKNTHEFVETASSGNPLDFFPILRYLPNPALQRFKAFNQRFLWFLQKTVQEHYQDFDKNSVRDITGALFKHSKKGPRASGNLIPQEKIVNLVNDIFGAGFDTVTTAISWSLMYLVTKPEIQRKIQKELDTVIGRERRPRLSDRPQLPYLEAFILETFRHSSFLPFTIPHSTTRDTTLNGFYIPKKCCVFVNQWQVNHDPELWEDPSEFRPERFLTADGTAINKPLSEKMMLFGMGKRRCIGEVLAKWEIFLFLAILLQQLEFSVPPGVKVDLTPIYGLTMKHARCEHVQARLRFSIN
# [7] = system: Caerulein-induced acute pancreatitis; experiment: Caerulein-induced model of acute pancreatitis; assay type: in vivo, mouse; details: 20 mg/kg
# Experimental: (§1) • Materials: Caerulein (C9026) and Taurolithocholic acid 3-sulfate disodium salt (TLCS; T0512) was purchased from Sigma. • Animal models: Eight to ten-week male C57BL/6 mice (Jackson Lab) were used according to an animal protocol approved by the Institutional Animal Care and Use Committee of Kyungpook National University. 1. Caerulein-Induced Model of Pancreatitis
# Acute pancreatitis (AP) was induced by intraperitoneal injections of caerulein at 50 μg/kg/h given 6 times.
# (§2) Upon completion of experiments with above-mentioned animal models (1) and (2), pancreas tissue were snap frozen in liquid nitrogen and stored at −80° C. for analysis of trypsin activity, for protein analysis by Western blots and for gene expression analysis by RT-qPCR. Pancreas were dissected and fixed in 10% neutral-buffered formalin and embedded in paraffin. Five-μm sections were prepared and stained with hematoxylin and eosin (H&E). Pancreas injury was determined by measuring serum amylase (K711-100, Biovision), serum lipase (MAK046, Sigma) and pancreatic tissue trypsin activity (Biovision) was determined using commercially available kit.
# Next, the inventors analyzed the efficacy of the compound of Chemical Formula 1 in vivo using two different animal models of acute pancreatitis. […] They pretreated mice with a single dose of compound of Chemical Formula 1, 24 hours prior to Caerulein challenge. An additional dose of compound of Chemical Formula 1 was administered to the animals at the beginning of Caerulein challenge. Upon completion of the experimental timeline, these animals were sacrificed and serum and pancreas tissue samples were collected and analyzed.
# Plasma stability h = assay type: in vitro ADME, human
# [8] = system: TLCS-induced acute pancreatitis; experiment: Intraductal bile acid (TLCS) infusion model of pancreatitis; assay type: in vivo, mouse; details: 20 mg/kg
# Description: as §1, §2
# Upon completion of the experimental timeline, these animals were sacrificed and serum and pancreas tissue samples were collected and analyzed.
# Plasma stability r = assay type: in vitro ADME, rat
# ERRγ [9] = target: T2, ERRγ (Homo sapiens, UniProt P62508); experiment: ERRγ binding
# T2 sequence (P62508 1-458): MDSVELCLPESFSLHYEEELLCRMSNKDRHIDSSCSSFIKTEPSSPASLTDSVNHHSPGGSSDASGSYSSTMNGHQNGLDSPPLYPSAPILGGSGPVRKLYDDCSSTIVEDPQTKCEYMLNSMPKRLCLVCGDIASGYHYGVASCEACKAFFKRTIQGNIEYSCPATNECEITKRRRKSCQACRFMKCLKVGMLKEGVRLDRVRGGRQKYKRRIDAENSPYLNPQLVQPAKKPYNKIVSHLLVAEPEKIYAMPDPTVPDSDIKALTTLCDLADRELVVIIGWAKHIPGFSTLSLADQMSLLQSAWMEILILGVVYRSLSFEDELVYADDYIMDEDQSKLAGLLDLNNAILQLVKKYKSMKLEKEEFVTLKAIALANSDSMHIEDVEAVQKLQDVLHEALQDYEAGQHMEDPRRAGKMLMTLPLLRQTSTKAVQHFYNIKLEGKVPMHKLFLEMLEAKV
# ERRγ [10] = target: T2, ERRγ; experiment: ERRγ functional assay; assay type: biochemical
"CYP (% remaining at 10 μM), All (CYP)",Structure (SMILES),MS (% of control) d [1],Papp (Permeability (PAMPA)) [×10⁻⁶ cm/s],Cmax (PK) [nM],PK BA % (PK) [%],clearance (PK) [mL/min/kg],half-life (PK) [h],Vd (PK) [L/kg],PK iv AUC (PK) [μMh],PK po AUC (PK) [μMh],MS (% of control) r [2],solubility (Water solubility) [µg/mL],MS (% of control) m [3],MS (% of control) h [4],pIC50 (hERG [5]),pIC50 (hERG [6]),LD50 (Single dose toxicity) [mg/kg],other results
–,"OCCC/C(=C(\c1ccc(O)cc1)c1ccc(C2CCN(C3CC3)CC2)cc1)c1ccccc1 [DMRC200699, (E)-5-(4-hydroxyphenyl)-5-(4-(N-cyclopropylpiperidin-4-yl)phenyl)-4-phenylpent-4-en-1-ol]",92 % of control,0.35,380,46,68,3,12,0.50,2.24,92 % of control,> 1000,84 % of control,–,–,–,–,–
OK All >83%,"OCCC/C(=C(/c1ccc(C2CCN(C3CC3)CC2)cc1)c1cccc(O)c1)c1ccccc1 [DMRC200966, (E)-5-(5-hydroxyphenyl)-5-(4-(N-cyclopropylpiperidin-4-yl)phenyl)-4-phenylpent-4-en-1-ol]",57 % of control,0.014,1510,58.2,45,1.8,4.6,0.85,4.93,50 % of control,> 1000,25 % of control,62 % of control,< 4.52,4.77,–,pIC50 (ERα): < 5.00; pIC50 (ERRα): < 5.00
–,"CC(C)N1CCN(c2ccc(/C(=C(/CCCO)c3ccccc3)c3cccc(O)c3)cc2)CC1 [DMRC2001000, (E)-5-(5-hydroxyphenyl)-5-(4-(4-isopropylpiperazin-1-yl)phenyl)-4-phenylpent-4-en-1-ol]",61 % of control,–,–,–,–,–,–,0.99,4.18,55 % of control,> 1000,27 % of control,65 % of control,–,–,> 2000,CYP (% remaining at 10 μM) 2C9 (CYP 2C9): 76%; CYP (% remaining at 10 μM) 2D6 (CYP 2D6): 66%; CYP (% remaining at 10 μM) 3A4 (CYP 3A4): 3A4(48) %; Permeability (PAMPA) (Permeability (PAMPA)): 1.29 10^−6 cm/s; CYP (% remaining at 10 μM) 2C19 (CYP 2C19): 100%; CYP (% remaining at 10 μM) 1A2 (CYP 1A2): 100%
OK All >73%,"CN(C)CCOc1ccc(/C(=C(/CCCO)c2ccccc2)c2ccc(O)cc2)cc1 [GSK5182, reference compound]",10 % of control,–,–,8.4,44,–,–,0.89,0.68,26 % of control,> 1000,7 % of control,43 % of control,–,–,–,–

Structure (SMILES),"CYP (% remaining at 10 μM), All (CYP)",MS (% of control) d [1],Papp (Permeability (PAMPA)) [×10⁻⁶ cm/s],Cmax (PK) [nM],PK BA % (PK) [%],clearance (PK) [mL/min/kg],half-life (PK) [h],Vd (PK) [L/kg],PK iv AUC (PK) [μMh],PK po AUC (PK) [μMh],MS (% of control) r [2],solubility (Water solubility) [µg/mL],MS (% of control) m [3],MS (% of control) h [4],pIC50 (hERG [5]),pIC50 (hERG [6]),LD50 (Single dose toxicity) [mg/kg],other results
"CC(C)N1CCN(c2ccc(/C(=C(/CCCO)c3ccccc3)c3ccc(O)cc3)cc2)CC1 [DMRC200434, (E)-5-(4-hydroxyphenyl)-5-(4-(4-isopropylpiperazin-1-yl)phenyl)-4-phenylpent-4-en-1-ol]",OK All >64%,50 % of control,0.46,208,22,75,3.7,16,0.42,0.82,33 % of control,> 1000,20 % of control,27 % of control,4.67,< 5.00,> 2000,"Caerulein-induced acute pancreatitis, overall outcome [7]: rescues mice; Serum amylase ([7]; 24 h before and at start of Caerulein, vs Caerulein alone): dramatic reduction; Pancreatic histopathology (H&E) ([7]; vs Caerulein alone): dramatically improved; Pancreatic tissue trypsin activity ([7]; vs Caerulein alone): dramatic reduction; Serum lipase ([7]; vs Caerulein alone): dramatic reduction; Plasma Stability (% of remaining after 2 h) h (Plasma stability h): 92.1%; Sodium Taurocholate-induced acute pancreatitis, overall outcome [8]: rescues mice; Plasma Stability (% of remaining after 2 h) r (Plasma stability r): 97.1%; pIC50 (ERRγ [9]): 7.40; pIC50 (ERRγ [10]): 8.22"
